Here are results for 9 molecules from patent publication US7687624B2, “Process for the production of N-arylmorpholinones” (Merck Patent GmbH, priority 2003, dated 2010).

For one data set the following is noted: pKa value of the amine; cited from earlier work.
For `Nc1ccccc1[N+](=O)[O-]` [2-Nitroaniline], the pKa (commonly the negative logarithm of the acid dissociation constant) is −0.23.

For the molecule `Nc1ccc(C(=O)c2ccccc2)cc1` [4-Aminobenzophenone], the pKa is listed as 2.2.

`NCc1ccccc1` [Benzylamine]: the pKa is recorded as 9.5.

On to `N#Cc1ccc(N)cc1` [4-Cyanoaniline], for which the pKa was 1.7.

As to `COC(=O)c1ccc(N)cc1` [Methyl 4-aminobenzoate], the pKa is 1.5.

With `Nc1cccc([N+](=O)[O-])c1` [3-Nitroaniline], the pKa was 2.5.

Regarding `Cc1cc([N+](=O)[O-])ccc1N` [2-Methyl-4-nitroaniline], the pKa is 1.04.

`COc1ccc(N)cc1` [4-Methoxyaniline]: the pKa was 5.4.

Conditions in another data set: not given
As for `O=C1COCCN1c1ccc([N+](=O)[O-])cc1` [Example 1, 4-(4-Nitrophenyl)-3-oxomorpholine], the melting point (commonly the temperature of the solid-liquid transition) lay in the range of 150 to 152 °C.
